Assay results from paper PMC9792601, “Conformational switch and multiple supramolecular structures of a newly identified self-assembling protein-mimetic peptide from Pseudomonas aeruginosa YeaZ protein” (Frontiers in Chemistry, 2022).
Ends that are not written are not given here.

Key:
[1] = Solubility observations in solvents; format: physicochemical
[2] = Dynamic Light Scattering of aggregates; format: physicochemical; conditions: 25°C, aged 24 h
Experimental: Malvern Zetasizer Nano instrument (Malvern Panalytical, Ltd.) was employed for Dynamic Light Scattering (DLS) analysis, performed at 25°C. The instrument is equipped with a 633 nm […] He–Ne laser at a scattering angle of 173°. All the samples used to analyze the stability of the PMP-2 aggregates as a function of different DMSO/water ratio were prepared by solvent displacement technique starting from concentrated solutions in 100% DMSO (0.125, 0.2, 0.5, 2, 4, and 10 mM) to obtain 0.1 mM final concentrations in Milli-Q water, with 80%, 50%, 20%, 10%, 5%, 2.5% and 1% v/v of DMSO, respectively. All the samples used to analyze the stability of the PMP-2 aggregates as a function of concentration were prepared starting from 0.1 mM in Milli-Q water with 5% v/v of DMSO and diluting with Milli-Q water to obtain the final concentration of 0.05, 0.01, 0.005, and 0.001 mM. The corresponding refractive index and viscosity data of DMSO/water mixtures are reported in the literature ([LeBel and Goring, 1962]) and the samples were aged 24 h at room temperature before the measurements.

[3] = 20 mM hydrogel in Milli-Q water, room temperature, 10 months
Experimental: To prepare the hydrogels at different concentration, the lyophilized PMP-2 was dissolved in the suitable amount of Milli-Q water (final concentration of the prepared solutions: 0.1, 1, 2, 5, 10, and 20 mM) heating at 60°C for 3 min and sonicating for 1 min. The clear solutions were left cooling at rt.
5 Preparation of the PMP-2-based hydrogels
PMP-2 was dissolved in the suitable amount of milliQ water (final concentration of the prepared
solutions: 0.1 mM, 1 mM, 2 mM, 5 mM, 10 mM and 20 mM) heating at 60 °C for 3 minutes and
sonicating for 1 min. The clear solutions were left cooling at rt.
The 20 mM hydrogel was kept at room

Sequence: AIAIGVVQGLAFALGGKKKG [PMP-2]
- highest reachable concentration in DMSO ([1]; DMSO): 20 mM
- solubility in water ([1]; water, room temperature): low solubility at room temperature
- DLS aggregate stability ([2]; 0.1 mM, 5, 2.5 and 1% v/v DMSO/water): presence of stable aggregates
- DLS aggregate stability ([2]; 0.1 mM, 20% and 10% DMSO in water): formation of some stable aggregates
- DLS aggregate stability ([2]; 0.1 mM, 100, 80 and 50% v/v DMSO/water): very poor scattering power
- stability of hydrogel on storage [3]: complete stability
